{
  "source": "paper PMC7470810",
  "about": "(Acta Pharmacologica Sinica, 2019)",
  "key": {"brain BCRP": {"molecular_target": "T1, brain BCRP (Rattus norvegicus, UniProt Q80W57)", "T1 sequence (Q80W57 1-657)": "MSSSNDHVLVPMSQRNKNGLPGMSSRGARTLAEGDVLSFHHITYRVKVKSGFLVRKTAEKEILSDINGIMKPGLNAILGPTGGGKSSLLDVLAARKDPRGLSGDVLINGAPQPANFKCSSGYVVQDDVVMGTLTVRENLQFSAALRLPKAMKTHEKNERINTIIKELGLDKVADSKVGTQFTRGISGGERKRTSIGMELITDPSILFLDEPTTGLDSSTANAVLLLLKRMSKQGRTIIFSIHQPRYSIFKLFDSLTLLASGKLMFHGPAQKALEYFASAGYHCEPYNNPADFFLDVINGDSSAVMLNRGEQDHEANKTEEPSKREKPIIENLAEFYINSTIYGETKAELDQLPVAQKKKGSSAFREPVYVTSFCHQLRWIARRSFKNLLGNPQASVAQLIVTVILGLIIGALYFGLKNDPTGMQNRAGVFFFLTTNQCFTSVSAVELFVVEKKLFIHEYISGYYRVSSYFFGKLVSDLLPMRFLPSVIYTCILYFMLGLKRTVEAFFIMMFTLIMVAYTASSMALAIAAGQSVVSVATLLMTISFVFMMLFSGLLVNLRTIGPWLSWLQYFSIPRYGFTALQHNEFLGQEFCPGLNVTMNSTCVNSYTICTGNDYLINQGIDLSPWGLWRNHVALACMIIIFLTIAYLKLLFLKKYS", "conditions": "normal rats"}, "BCRP [1]": {"molecular_target": "T2, BCRP (Homo sapiens, UniProt Q9UNQ0)", "T2 sequence (Q9UNQ0 1-655)": "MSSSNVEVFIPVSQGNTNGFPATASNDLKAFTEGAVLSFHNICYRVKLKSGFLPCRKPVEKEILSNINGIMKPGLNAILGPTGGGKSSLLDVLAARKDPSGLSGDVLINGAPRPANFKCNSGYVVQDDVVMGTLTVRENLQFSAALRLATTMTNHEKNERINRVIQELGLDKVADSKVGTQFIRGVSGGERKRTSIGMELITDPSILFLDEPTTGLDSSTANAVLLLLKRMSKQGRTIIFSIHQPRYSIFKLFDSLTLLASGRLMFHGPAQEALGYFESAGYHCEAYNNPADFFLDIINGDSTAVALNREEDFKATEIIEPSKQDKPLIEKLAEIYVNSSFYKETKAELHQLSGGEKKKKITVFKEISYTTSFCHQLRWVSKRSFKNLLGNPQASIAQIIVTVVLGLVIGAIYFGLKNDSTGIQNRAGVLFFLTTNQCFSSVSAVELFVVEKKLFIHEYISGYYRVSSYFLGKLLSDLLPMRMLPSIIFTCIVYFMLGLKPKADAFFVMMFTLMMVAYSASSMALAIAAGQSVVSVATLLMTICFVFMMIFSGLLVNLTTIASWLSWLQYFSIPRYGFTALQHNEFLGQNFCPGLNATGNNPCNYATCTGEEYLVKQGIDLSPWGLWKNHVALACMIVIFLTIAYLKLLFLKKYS", "conditions": "AZT 1 μM, 120 min"}, "[2]": {"conditions": "cited from earlier work"}, "BCRP [3]": {"molecular_target": "BCRP (Homo sapiens, UniProt Q9UNQ0)", "conditions": "HCMEC/D3 cells, siRNA for human ABCG2 vs CON"}, "SO and BDL rats": {"test_system": "SO and BDL rats", "test": "Y-maze test during AZT treatment", "type": "in vivo, rat"}, "MDCKII-WT cells": {"test_system": "MDCKII-WT cells", "test": "Uptake of AZT in MDCKII-WT cells", "type": "in vitro ADME, canine", "conditions": "wild-type MDCKII cells, AZT 1 μM, 120 min"}, "BCRP [4]": {"molecular_target": "T2, BCRP", "conditions": "not told; cited from earlier work"}},
  "data": [
    {"molecule": "CO[C@@H]1[C@@H](OC(N)=O)[C@@H](O)[C@H](Oc2ccc3c(O)c(NC(=O)c4ccc(O)c(CC=C(C)C)c4)c(=O)oc3c2C)OC1(C)C", "note": "[novobiocin]", "values": [
      {"measurement": "increase in Kin of AZT with novobiocin", "setting": "brain BCRP; cortex, AZT 25 μM + novobiocin 200 μM, 2 min perfusion", "value": "not significant"}
    ]},
    {"molecule": "Cc1cn([C@H]2C[C@H](N=[N+]=[N-])[C@@H](CO)O2)c(=O)[nH]c1=O", "note": "[AZT, Zidovudine]", "values": [
      {"measurement": "uptake of AZT in MDCKII-BCRP cells, % of that in MDCKII-WT cells", "setting": "BCRP [1]", "value": "approximately 50.0%"},
      {"measurement": "plasma protein binding", "setting": "[2]", "value": 10, "unit": "%"},
      {"measurement": "uptake of AZT after BCRP siRNA knockdown", "setting": "BCRP [3]", "value": "significantly increased"},
      {"measurement": "Y-maze percentage of alternation of arm entrance", "setting": "SO and BDL rats; BDL rats treated with AZT 100 mg/kg every day i.v. compared with SO rats", "value": "significantly decreased"},
      {"measurement": "Y-maze total number of entries, effect of AZT treatment", "setting": "SO and BDL rats; BDL rats, AZT 100 mg/kg every day i.v., day 5 of treatment", "value": "further enhanced by AZT treatment, but the difference was not significant"},
      {"measurement": "impairment of cognitive function by AZT", "setting": "SO and BDL rats; SO rats, AZT 100 mg/kg every day i.v., Y-maze and shuttle box", "value": "did not occur"}
    ]},
    {"molecule": "Ko143", "values": [
      {"measurement": "effect of incubation with Ko143 on uptake of AZT", "setting": "MDCKII-WT cells", "value": "did not affect"},
      {"measurement": "effect of coadministration of Ko143 on influx of AZT into the hippocampus", "setting": "brain BCRP", "value": "markedly increased"}
    ]},
    {"molecule": "CC(C)(C)NC(=O)[C@@H]1C[C@@H]2CCCC[C@@H]2CN1C[C@@H](O)[C@H](Cc1ccccc1)NC(=O)[C@H](CC(N)=O)NC(=O)c1ccc2ccccc2n1", "note": "[saquinavir]", "values": [
      {"measurement": "efflux by BCRP", "setting": "BCRP [4]", "value": "BCRP also mediates the efflux"}
    ]}
  ]
}
